Test results from publication PMC10394347 (Chinese Herbal Medicines, 2023).

These molecules were tested against AKT (PH domain) (Homo sapiens, UniProt P31749) (assay: intrinsic fluorescence quenching).
Format: binding

Sequence of AKT (PH domain) (P31749 1-123): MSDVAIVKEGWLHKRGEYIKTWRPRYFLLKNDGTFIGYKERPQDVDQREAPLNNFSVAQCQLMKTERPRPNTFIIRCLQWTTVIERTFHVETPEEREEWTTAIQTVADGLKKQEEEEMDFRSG

| Kd | SMILES |
| --- | --- |
| 37.9 µM | O=C(O)/C=C/c1ccc(O[C@@H]2O[C@H](C(=O)O)[C@@H](O)[C@H](O)[C@H]2O)c(O)c1 [CA4G, caffeic-4′-O-glucuronide] |
| 183 µM | O=C(O)/C=C/c1ccc(O)c(O)c1 [CA, caffeic acid] |
| 48.1 µM | COc1cc(/C=C/C(=O)O)ccc1O[C@@H]1O[C@H](C(=O)O)[C@@H](O)[C@H](O)[C@H]1O [FA4G, ferulic-4′-O-glucuronide] |
| 185 µM | COc1cc(/C=C/C(=O)O)ccc1O [FA, ferulic acid] |
